# In patent publication US20250163029A1, “PYRIDONE OR PYRIMIDONE DERIVATIVE AND APPLICATION THEREOF” (Medshine Discovery Inc., priority 2022, published 2025):
# What was measured:
# SARS-CoV-2 Mpro = molecular target: T1, SARS-CoV-2 Mpro (Severe acute respiratory syndrome coronavirus 2, UniProt P0DTD1); test: In vitro anti-novel coronavirus Mpro protease activity; format: biochemical; details: 25 nM Mpro protein, 25 μM substrate
# T1 construct: Mpro protein was added to the 384-well assay plate; purchased WuXi AppTec
# Procedure: (§1) The compound was dissolved in DMSO, and diluted in a 3-fold gradient with Echo655 according to the concentration requirements for the assay to 10 concentration points. Duplicate assays were set at each concentration. The diluted solution was added to a 384-well plate. Mpro protein and substrate were diluted with assay buffer (100 mM NaCl, 20 mM Tris-HCl, 1 mM EDTA). Mpro protein was added to the 384-well assay plate, and incubated with the compound for 30 min at room temperature. Then the substrate was added. The assay concentration of Mpro protein was 25 nM, and the assay concentration of substrate was 25 μM. After incubating for 60 minutes in a 30° C. constant temperature incubator, the fluorescence signal value of Ex/Em=340 nm/490 nm was detected by microplate reader. At the same time, the background well containing the substrate and compound but not containing Mpro protein was detected as control.
# as §1, with “EDTA), and” for “EDTA).”, “plate,” for “plate, and”
# 2) Log (agonist) vs. response—variable slope nonlinear fitting analysis was carried out on the inhibition rate data (inhibition rate %) of the compound by using GraphPad Prism software, and the IC50 value of the compound was obtained.
# SARS-CoV-2 replicon = test: microbe, parasite or virus in culture; format: cell-based; details: Severe acute respiratory syndrome coronavirus 2, Huh-7, 24 h
Compound,IC50 (SARS-CoV-2 Mpro),EC50 (SARS-CoV-2 replicon)
Cn1cnc(Cc2cn(Cc3cc(F)c(F)cc3F)c(Nc3cc4cn(C)nc4cc3Cl)nc2=O)n1 [Compound 4],25 nM,66 nM
Cn1cnc(Cc2c(F)n(Cc3cc(F)c(F)cc3F)c(Nc3cc4cn(C)nc4cc3Cl)nc2=O)n1 [Compound 8],58 nM,58 nM
Cn1cnc(Cc2cn(Cc3cc(F)c(F)c(F)c3F)c(Nc3cc4cn(C)nc4cc3Cl)nc2=O)n1 [Compound 7],62 nM,82 nM
